According to patent US20260262643A1, “HERBICIDAL BENZOXAZINES” (FMC CORPORATION, priority 2022, published 2026):

How the values were obtained:
[1] = system: soybean; assay: Test A preemergence; type: in vivo, Glycine max
Summary of the method: (§1)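 Visual injury ratings on a 0–100 scale (100 = complete control) versus untreated controls, taken 10 days after treatment in greenhouse. Preemergence: directed soil spray onto seeded loam/sand. Postemergence: foliar application at one- to two-leaf stage, plants 2–10 cm. Formulation: non-phytotoxic solvent plus surfactant.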

[2] = system: ryegrass, Italian; assay: Test A preemergence; type: in vivo, Lolium multiflorum
Summary of the method: as §1

[3] = system: corn; assay: Test A preemergence; type: in vivo, Zea mays
Summary of the method: as §1

[4] = system: oat, wild; assay: Test A postemergence; type: in vivo, Avena fatua; conditions: 500 g ai/ha, postemergence, 10 days, visual injury, 0 to 100 scale (0 no effect, 100 complete control)
Summary of the method: as §1

[5] = system: ragweed; assay: Test A postemergence; type: in vivo, Ambrosia artemisiifolia; conditions: 500 g ai/ha, postemergence, 10 days, visual injury, 0 to 100 scale (0 no effect, 100 complete control)
Summary of the method: as §1

[6] = system: pigweed, palmer; assay: Test A postemergence; type: in vivo, Amaranthus palmeri; conditions: 500 g ai/ha, postemergence, 10 days, visual injury, 0 to 100 scale (0 no effect, 100 complete control)
Summary of the method: as §1

[7] = system: horseweed; assay: Test A postemergence; type: in vivo, Erigeron canadensis; conditions: postemergence, 10 days, visual injury, 0 to 100 scale (0 no effect, 100 complete control)
Summary of the method: as §1

[8] = system: goosegrass; assay: Test A preemergence; type: in vivo, Eleusine indica
Summary of the method: as §1

[9] = system: pigweed, palmer; assay: Test A preemergence; type: in vivo, Amaranthus palmeri
Summary of the method: as §1

[10] = system: oat, wild; assay: Test A preemergence; type: in vivo, Avena fatua
Summary of the method: as §1

[11] = system: rice; assay: Test B flooded paddy test; type: in vivo, Oryza sativa; conditions: 250 g ai/ha, Flood, 13 days, 0 to 100 scale (0 no effect, 100 complete control)
Summary of the method: (§2)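 2-leaf stage; pots flooded 3 cm over soil; compound dosed into paddy water; depth kept constant. Greenhouse, 13 d. Visual rating vs controls, 0 (no effect)–100 (complete control). Dash = no result.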

[12] = system: galium; assay: Test A postemergence; type: in vivo, Galium aparine; conditions: postemergence, 10 days, visual injury, 0 to 100 scale (0 no effect, 100 complete control)
Summary of the method: as §1

[13] = system: ducksalad; assay: Test B flooded paddy test; type: in vivo, Heteranthera limosa; conditions: 250 g ai/ha, Flood, 13 days, 0 to 100 scale (0 no effect, 100 complete control)
Summary of the method: as §2

[14] = system: goosegrass; assay: Test A postemergence; type: in vivo, Eleusine indica; conditions: postemergence, 10 days, visual injury, 0 to 100 scale (0 no effect, 100 complete control)
Summary of the method: as §1

[15] = system: ryegrass, Italian; assay: Test A postemergence; type: in vivo, Lolium multiflorum; conditions: 500 g ai/ha, postemergence, 10 days, visual injury, 0 to 100 scale (0 no effect, 100 complete control)
Summary of the method: as §1

[16] = system: kochia; assay: Test A preemergence; type: in vivo, Bassia scoparia
Summary of the method: as §1

[17] = system: kochia; assay: Test A postemergence; type: in vivo, Bassia scoparia; conditions: postemergence, 10 days, visual injury, 0 to 100 scale (0 no effect, 100 complete control)
Summary of the method: as §1

[18] = system: wheat; assay: Test A postemergence; type: in vivo, Triticum aestivum; conditions: 500 g ai/ha, postemergence, 10 days, visual injury, 0 to 100 scale (0 no effect, 100 complete control)
Summary of the method: as §1

[19] = system: ragweed; assay: Test A preemergence; type: in vivo, Ambrosia artemisiifolia
Summary of the method: as §1

[20] = system: corn; assay: Test A postemergence; type: in vivo, Zea mays; conditions: postemergence, 10 days, visual injury, 0 to 100 scale (0 no effect, 100 complete control)
Summary of the method: as §1

[21] = system: barnyardgrass; assay: Test B flooded paddy test; type: in vivo, Echinochloa crus-galli; conditions: 250 g ai/ha, Flood, 13 days, 0 to 100 scale (0 no effect, 100 complete control)
Summary of the method: as §2

[22] = system: sedge, umbrella; assay: Test B flooded paddy test; type: in vivo, Cyperus difformis; conditions: 250 g ai/ha, Flood, 13 days, 0 to 100 scale (0 no effect, 100 complete control)
Summary of the method: as §2

[23] = system: blackgrass; assay: Test A postemergence; type: in vivo, Alopecurus myosuroides
Summary of the method: as §1

[24] = system: foxtail, giant; assay: Test A preemergence; type: in vivo, Setaria faberi
Summary of the method: as §1

[25] = system: wheat; assay: Test A preemergence; type: in vivo, Triticum aestivum
Summary of the method: as §1

[26] = system: soybean; assay: Test A postemergence; type: in vivo, Glycine max; conditions: 500 g ai/ha, postemergence, 10 days, visual injury, 0 to 100 scale (0 no effect, 100 complete control)
Summary of the method: as §1

[27] = system: foxtail, giant; assay: Test A postemergence; type: in vivo, Setaria faberi; conditions: postemergence, 10 days, visual injury, 0 to 100 scale (0 no effect, 100 complete control)
Summary of the method: as §1

[28] = 125 g ai/ha, visual injury after 10 days, 0 to 100 scale, 0 is no effect, 100 is complete control
[29] = 500 g ai/ha, 0 to 100 scale (0 no effect, 100 complete control), 10 days

CC(C)c1ncn(-c2cccc(C(=O)N3C[C@H](C)Oc4c(Cl)cccc43)c2)n1 [Compound 78]
Plant response rating, Soybean [1, 28]: 0 | Plant response rating, Soybean [1, 29]: 100 | Plant response rating, Ryegrass, Italian [2, 28]: 90 | Plant response rating, Ryegrass, Italian [2, 29]: 100 | Plant response rating, Corn [3, 28]: 30 | Plant response rating, Corn [3, 29]: 30 | Plant response rating, Oat, Wild [4]: 90 | Plant response rating, Ragweed [5]: 80 | Plant response rating, Pigweed, Palmer [6]: 90 | Plant response rating, Horseweed ([7]; 125 g ai/ha): 0 | Plant response rating, Horseweed ([7]; 500 g ai/ha): 0 | Plant response rating, Goosegrass [8, 28]: 90 | Plant response rating, Goosegrass [8, 29]: 100 | Plant response rating, Pigweed, Palmer [9, 28]: 100 | Plant response rating, Pigweed, Palmer [9, 29]: 100 | Plant response rating, Oat, Wild [10, 28]: 80 | Plant response rating, Oat, Wild [10, 29]: 90 | Plant response rating, Rice [11]: 0 | Plant response rating, Galium ([12]; 125 g ai/ha): 100 | Plant response rating, Galium ([12]; 500 g ai/ha): 100 | Plant response rating, Ducksalad [13]: 75 | Plant response rating, Goosegrass ([14]; 125 g ai/ha): 40 | Plant response rating, Goosegrass ([14]; 500 g ai/ha): 80 | Plant response rating, Ryegrass, Italian [15]: 100 | Plant response rating, Kochia [16, 28]: 90 | Plant response rating, Kochia [16, 29]: 100 | Plant response rating, Kochia ([17]; 125 g ai/ha): 70 | Plant response rating, Kochia ([17]; 500 g ai/ha): 100 | Plant response rating, Wheat [18]: 50 | Plant response rating, Ragweed [19, 28]: 0 | Plant response rating, Ragweed [19, 29]: 90 | Plant response rating, Corn ([20]; 125 g ai/ha): 10 | Plant response rating, Corn ([20]; 500 g ai/ha): 60 | Plant response rating, Barnyardgrass [21]: 0 | Plant response rating, Sedge, Umbrella [22]: 0 | Plant response rating, Blackgrass ([23]; 125 g ai/ha, postemergence, 10 days, visual injury, 0 to 100 scale (0 no effect, 100 complete control)): 50 | Plant response rating, Blackgrass ([23]; 500 g ai/ha, Postemergence, 0 to 100 scale): 90 | Plant response rating, Foxtail, Giant [24, 28]: 100 | Plant response rating, Foxtail, Giant [24, 29]: 100 | Plant response rating, Wheat [25, 28]: 20 | Plant response rating, Wheat [25, 29]: 80 | Plant response rating, Soybean [26]: 100 | Plant response rating, Foxtail, Giant ([27]; 125 g ai/ha): 50 | Plant response rating, Foxtail, Giant ([27]; 500 g ai/ha): 90
